The text below walks through data of ChEMBL document CHEMBL1201862, “PubChem BioAssay data set” (2004).

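Step 1: Grow cells in 96-well plates. Step 2: Expose to compound for 48 hours at 5 concentrations. Step 3: Interpolate endpoints linearly; if unreached, use highest concentration. GI50 = concentration required for 50% inhibition of growth.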 Calls of active or inactive are those of the source. Cut-off read from the data, not from the text of the source: active = GI50 up to about 1.1 µM and inactive = higher.

Test systems include SF-295; M14; ACHN; HCT-15; OVCAR-8; RXF 393; BT-549; CCRF-CEM; EKVX; COLO 205; A498; UO-31; UACC-257; NCI-H522; OVCAR-3; HOP-92; OVCAR-5; K562; SN12C.
Assay in all cases: inhibition of tumour cell growth, NCI panel, 48 h

`CN1CCN(C2=C(Cl)C(=O)c3c(O)ccc(O)c3C2=O)CC1`: the GI50 in the assay on SF-295 was 1.78 µM (inactive); in the assay on M14, 0.281 µM (active); in the assay on ACHN, 0.286 µM (active); in the assay with HCT-15 it was 0.176 µM; in the assay with OVCAR-8, 0.223 µM (active); in the assay with RXF 393 it was 0.18 µM (active). Besides, the GI50 in the assay on BT-549 was 0.486 µM (active); in the assay with CCRF-CEM, 0.105 µM (active); with EKVX, 1.66 µM (inactive); in the assay on COLO 205, 0.182 µM (active); in the assay on A498, 2.52 µM (inactive); in the assay on UO-31, 0.646 µM (active). The GI50 in the assay with UACC-257 was 0.689 µM (active); with NCI-H522 it was 0.243 µM (active); in the assay with OVCAR-3 it was 0.542 µM (active); in the assay on HOP-92, 0.223 µM (active); in the assay with OVCAR-5, 1.58 µM (inactive); in the assay on K562, 0.217 µM (active). Also, the GI50 with SN12C is 0.826 µM (active).
For the compound `CS(=O)(=O)Nc1ccc2c(c1)oc(=O)c1ccccc12`, the GI50 with SF-295 was > 100 µM (inactive); with M14, > 100 µM (inactive); in the assay on ACHN it was > 100 µM (inactive); in the assay with HCT-15, > 100 µM; in the assay with OVCAR-8, > 100 µM (inactive); in the assay on RXF 393, > 100 µM (inactive). Moreover, the GI50 in the assay on BT-549 is > 100 µM (inactive); with CCRF-CEM it was > 100 µM (inactive); in the assay with EKVX, 45.4 µM (inactive); in the assay with COLO 205, > 100 µM (inactive); with A498 it was > 100 µM (inactive); in the assay on UO-31 it was 38.5 µM (inactive). In addition, the GI50 in the assay with UACC-257, in the assay on NCI-H522, with OVCAR-3, with HOP-92, in the assay with OVCAR-5 and with K562 was > 100 µM (inactive) each time. For the same compound, the GI50 in the assay on SN12C was > 100 µM (inactive).
Consider `C(=C\N1CCCCC1)/c1nnnn1-c1ccccc1`, for which the GI50 in the assay with SF-295 was 21.9 µM (inactive); in the assay on M14 it was 14.1 µM (inactive); in the assay on ACHN, 37.9 µM (inactive); in the assay on HCT-15, 23.6 µM; in the assay with OVCAR-8, 26.4 µM (inactive); in the assay with RXF 393 it was 13.9 µM (inactive). The GI50 in the assay on BT-549 was 33 µM (inactive); with CCRF-CEM, 19.6 µM (inactive); with EKVX it was 23.5 µM (inactive); in the assay with COLO 205, > 100 µM (inactive); in the assay on A498, 54.1 µM (inactive); in the assay on UO-31 it was 30 µM (inactive). The GI50 in the assay on UACC-257 was 56.2 µM (inactive); in the assay with NCI-H522, 47 µM (inactive); with OVCAR-3 it was 30.5 µM (inactive); in the assay on HOP-92, 66.1 µM (inactive); in the assay with OVCAR-5, 42.1 µM (inactive); with K562, 30.7 µM (inactive). For the same compound, the GI50 in the assay with SN12C was 26.2 µM (inactive).
For `CN1CCN(c2cc3nc4cc(O)cc(O)c4c(O)c3cc2N)CC1`, the GI50 is 32.7 µM (inactive) in the assay with SF-295; 37.1 µM (inactive) with M14; 27.5 µM (inactive) with ACHN; 67 µM in the assay with HCT-15; 26.2 µM (inactive) with OVCAR-8; 20.7 µM (inactive) with RXF 393. Also, the GI50 is 28.6 µM (inactive) in the assay with BT-549; 13.4 µM (inactive) in the assay with CCRF-CEM; 19.4 µM (inactive) in the assay on EKVX; 14 µM (inactive) in the assay on COLO 205; 21.6 µM (inactive) in the assay with A498; 19.7 µM (inactive) in the assay on UO-31. Besides, the GI50 with UACC-257 was 38.8 µM (inactive); in the assay on NCI-H522, 19.5 µM (inactive); in the assay with OVCAR-3, 20.7 µM (inactive); in the assay on HOP-92 it was 10.6 µM (inactive); in the assay with OVCAR-5, 23.9 µM (inactive); with K562, 14.5 µM (inactive). In addition, the GI50 in the assay with SN12C is 1.5 µM (inactive).
In the case of `CC(C)(C)[Si](C)(C)Oc1ccc(C2CNC(=O)C23CCC(=O)N3Cc2ccccc2)cc1` (centres undefined), the GI50 in the assay on SF-295 was 13.9 µM (inactive); with M14 it was 16.4 µM (inactive); in the assay on ACHN, 15 µM (inactive); with HCT-15, 12.8 µM; in the assay on OVCAR-8 it was 12.6 µM (inactive); with RXF 393 it was 10.7 µM (inactive). The GI50 in the assay on BT-549 was 15.5 µM (inactive); in the assay with CCRF-CEM, 17.6 µM (inactive); in the assay on EKVX it was 6.68 µM (inactive); with COLO 205, 11.7 µM (inactive); in the assay on A498 it was 12.2 µM (inactive); in the assay with UO-31 it was 16 µM (inactive). Moreover, the GI50 in the assay with UACC-257 was 12.4 µM (inactive); in the assay with NCI-H522 it was 10.7 µM (inactive); with OVCAR-3 it was 12.5 µM (inactive); in the assay with HOP-92, 17.1 µM (inactive); with OVCAR-5 it was 17.5 µM (inactive); in the assay with K562 it was 7.24 µM (inactive). Further, in the assay with SN12C, the GI50 was 15 µM (inactive).
Regarding `NCC(=O)NC1(c2cc3ccccc3s2)CCCCC1`, the GI50 in the assay with SF-295 was 59.7 µM (inactive); in the assay with M14 it was 17.6 µM (inactive); in the assay on ACHN, 23.3 µM (inactive); with HCT-15, 61.1 µM; in the assay on OVCAR-8 it was > 100 µM (inactive); in the assay on RXF 393, 42.3 µM (inactive). Besides, the GI50 in the assay with BT-549 was 54.1 µM (inactive); in the assay on CCRF-CEM, 22 µM (inactive); in the assay with EKVX, 19.9 µM (inactive); in the assay on COLO 205, 17.9 µM (inactive); in the assay with A498 it was 31 µM (inactive); with UO-31, 45.9 µM (inactive). Moreover, the GI50 in the assay on UACC-257 was 17.4 µM (inactive); in the assay on NCI-H522, 41.4 µM (inactive); in the assay on OVCAR-3 it was > 100 µM (inactive); in the assay on HOP-92, 22.2 µM (inactive); with OVCAR-5 it was 40.5 µM (inactive); in the assay on K562 it was 5.68 µM (inactive). Moreover, the GI50 with SN12C is 79.1 µM (inactive).
Consider `Oc1ccccc1CNCc1ccccc1O`, for which the GI50 in the assay with SF-295 is > 100 µM (inactive); with M14 it was > 100 µM (inactive); with ACHN, > 100 µM (inactive); with HCT-15, > 100 µM; in the assay with OVCAR-8, > 100 µM (inactive); in the assay with RXF 393, > 100 µM (inactive). For the same compound, the GI50 in the assay on BT-549 is > 100 µM (inactive); in the assay with CCRF-CEM it was 59.2 µM (inactive); with EKVX, > 100 µM (inactive); with COLO 205 it was 34 µM (inactive); with A498, > 100 µM (inactive); with UO-31, 90.2 µM (inactive). For the same compound, the GI50 in the assay on UACC-257 is > 100 µM (inactive); in the assay with NCI-H522, > 100 µM (inactive); in the assay on OVCAR-3, > 100 µM (inactive); in the assay on HOP-92 it was 99.5 µM (inactive); with OVCAR-5 it was > 100 µM (inactive); in the assay on K562 it was 39.6 µM (inactive). In the assay on SN12C, the GI50 was > 100 µM (inactive).
With `O=C(O)CCSC(CC1(c2ccc(Cl)cc2)NC(=O)CCS1)c1ccccc1` (centres undefined), the GI50 was 21.2 µM (inactive) in the assay on SF-295; 19.4 µM (inactive) in the assay with M14; 25.5 µM (inactive) with ACHN; 8.09 µM in the assay with HCT-15; 19.9 µM (inactive) with OVCAR-8; 21.7 µM (inactive) in the assay on RXF 393. The GI50 in the assay on BT-549 is 17 µM (inactive); with CCRF-CEM it was 1.9 µM (inactive); in the assay with EKVX it was 21.5 µM (inactive); with COLO 205, 22.3 µM (inactive); with A498, 21.5 µM (inactive); in the assay on UO-31, 20.7 µM (inactive). Further, the GI50 in the assay on UACC-257 is 21.9 µM (inactive); with NCI-H522, 15.1 µM (inactive); in the assay with OVCAR-3 it was 20.2 µM (inactive); in the assay with HOP-92, 33.8 µM (inactive); in the assay with OVCAR-5 it was 17.9 µM (inactive); with K562, 10.8 µM (inactive). Moreover, the GI50 with SN12C is 18.3 µM (inactive).
Turning to `COc1ccc(/C=N/c2ccc(-c3nc4ccccc4s3)cc2)cc1OC`, the GI50 was 25.4 µM (inactive) in the assay on SF-295; 35.7 µM (inactive) in the assay with M14; 22.5 µM (inactive) in the assay on ACHN; 31.8 µM with HCT-15; 36.2 µM (inactive) in the assay on OVCAR-8; 20.3 µM (inactive) in the assay on RXF 393. In addition, the GI50 in the assay with BT-549 is 30.5 µM (inactive); in the assay with CCRF-CEM, 12.8 µM (inactive); with EKVX, 32.9 µM (inactive); with COLO 205, 19.3 µM (inactive); in the assay with A498, 18.8 µM (inactive); in the assay with UO-31, 27.5 µM (inactive). Also, the GI50 in the assay with UACC-257 is 22.7 µM (inactive); in the assay with NCI-H522, 16.7 µM (inactive); in the assay on OVCAR-3, 13.4 µM (inactive); with HOP-92 it was 22.4 µM (inactive); with OVCAR-5, 36.5 µM (inactive); with K562 it was 27.4 µM (inactive). Further, the GI50 in the assay on SN12C is 25.7 µM (inactive).
Regarding `COc1cc(/C=C2\C[C@H]3[C@@H]4CCC5=CC(=O)CC[C@]5(C)[C@H]4CC[C@]3(C)C2=O)cc(OC)c1OC`, the GI50 with SF-295 is 5.93 µM (inactive); in the assay on M14, 3.74 µM (inactive); with ACHN, 9.16 µM (inactive); in the assay on HCT-15, 4.82 µM; with OVCAR-8, 4 µM (inactive); in the assay on RXF 393, 10.1 µM (inactive). Also, the GI50 with BT-549 was 3.29 µM (inactive); in the assay on CCRF-CEM, 4.76 µM (inactive); in the assay with EKVX, 15.6 µM (inactive); in the assay with COLO 205 it was 4.32 µM (inactive); in the assay on A498, 17.7 µM (inactive); in the assay with UO-31 it was 2.72 µM (inactive). Also, the GI50 with UACC-257 is 6.07 µM (inactive); in the assay on NCI-H522 it was 3.2 µM (inactive); in the assay on OVCAR-3, 4.49 µM (inactive); in the assay on HOP-92, 13.1 µM (inactive); in the assay with OVCAR-5 it was 33.1 µM (inactive); in the assay on K562, 3.82 µM (inactive). For the same compound, in the assay with SN12C, the GI50 was 6.4 µM (inactive).
For `O=C1c2c(Br)sc(Br)c2[C@@H](Cl)[C@H]1Cl`, the GI50 with SF-295 is 20.5 µM (inactive); in the assay with M14, 19.7 µM (inactive); in the assay on ACHN, 19.2 µM (inactive); in the assay on HCT-15, 19.7 µM; in the assay with OVCAR-8 it was 15.1 µM (inactive); in the assay on RXF 393, 15.5 µM (inactive). Besides, the GI50 in the assay on BT-549 was 20.6 µM (inactive); in the assay on CCRF-CEM, 3.18 µM (inactive); with EKVX it was 21.7 µM (inactive); in the assay on COLO 205, 15.7 µM (inactive); in the assay with A498 it was > 100 µM (inactive); with UO-31, 20.2 µM (inactive). Moreover, the GI50 with UACC-257 is 15.9 µM (inactive); in the assay on NCI-H522, 3.07 µM (inactive); with OVCAR-3, 14.3 µM (inactive); in the assay on HOP-92, 21 µM (inactive); in the assay on OVCAR-5, 20.8 µM (inactive); with K562 it was 10 µM (inactive). For the same compound, in the assay on SN12C, the GI50 was 8.87 µM (inactive).
